Experimental data reported in ChEMBL document CHEMBL1201862, “PubChem BioAssay data set” (2004).
The source made the active and inactive calls.

Experiments:
[1] = system: HEK293; test: cytotoxicity in HEK293T NF-kB-Luc cells, SAR follow-up, cytotoxicity control for NF-kB activator project, cell-based, resazurin fluorescence (AID 493251); type: functional; details: Homo sapiens
[2] = system: Jurkat; test: SAR Analysis of small molecule inhibitors of T-cell specific antigen receptor-induced NF-kB activation in a Jurkat cell line using a luminescence assay. [Related pubchem assays (depositor defined):AID435003, AID435012, AID465]; type: functional, cell-based; details: Homo sapiens
[3] = system: HEK293; test: SAR Analysis of small molecule inhibitors of T-cell specific antigen receptor-induced NF-kB activation in a HEK-293T cell line using a luminescence assay. [Related pubchem assays (depositor defined):AID435003, AID435012, AID489026]; type: functional, cell-based; details: Homo sapiens
[4] = target: Cysteine protease ATG4B (Homo sapiens, UniProt Q9Y4P1); type: functional;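 further: Fluorescence-based dose-response confirmation assay measuring inhibition of ATG4B activity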
[5] = target: Phospholipase A2 (Homo sapiens, UniProt P04054); type: functional;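 further: confirmatory dose-response counterscreen on phospholipase A2, testing hits that came from an ultra-high-throughput screen for ATG4B inhibitors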
[6] = system: BJ; test: cytotoxicity toward BJ-TERT fibroblasts, dose response, cell-based, RAS-independent, luminescence (AID 1933); type: functional; details: Homo sapiens
[7] = system: BJ; test: cells; type: functional, cell-based; details: Homo sapiens
[8] = system: BJ; test: cytotoxicity toward BJ-TERT-LT-ST fibroblasts, dose response, cell-based, RAS-independent, luminescence (AID 1935); type: functional; details: Homo sapiens;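 further: BJ fibroblasts immortalized with TERT plus LT and ST oncogenes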
[9] = cytotoxicity toward DRD oncogenic fibroblasts, dose response, cell-based, non-viral oncogenic, luminescence (AID 1934); type: functional; details: Homo sapiens
[10] = target: Latent membrane protein 1 (Human herpesvirus 4 (strain B95-8), UniProt P03230); test: TES1-eGFP NF-kB reporter inhibition versus Tet-On dsRED, dose response, selectivity assay for LMP1 NF-kB inhibitor project, imaging, HEK293T, dual-color eGFP/dsRED, cherry-picks (AID 588398); type: functional, cell-based
[11] = target: Eukaryotic translation initiation factor 4H (Homo sapiens, UniProt Q15056); test: human eIF4H binding inhibitors, primary screen, translation initiation inhibitor project, biochemical, uHTS, fluorescence polarization (AID 2012)
[12] = target: Induced myeloid leukemia cell differentiation protein Mcl-1 (Homo sapiens, UniProt Q07820); type: functional
[13] = target: Polyadenylate-binding protein 1 (Homo sapiens, UniProt P11940); test: PABP poly(A) RNA binding inhibitors, primary screen, biochemical, fluorescence polarization, uHTS (AID 2014)
[14] = target: Beta-adrenergic receptor kinase 1 (Homo sapiens, UniProt P25098); test: aptamer displacement from bead-bound GRK2 – biochemical, cherry pick 1, bead flow cytometry, dose response (AID 504500)
[15] = target: T1, Apoptotic protease-activating factor 1 (Homo sapiens, UniProt O14727); test: activation of Apaf-1 mediated apoptosis – fluorescent, uHTS hits, dose response (AID 588554); type: functional
T1 sequence (O14727 whole entry): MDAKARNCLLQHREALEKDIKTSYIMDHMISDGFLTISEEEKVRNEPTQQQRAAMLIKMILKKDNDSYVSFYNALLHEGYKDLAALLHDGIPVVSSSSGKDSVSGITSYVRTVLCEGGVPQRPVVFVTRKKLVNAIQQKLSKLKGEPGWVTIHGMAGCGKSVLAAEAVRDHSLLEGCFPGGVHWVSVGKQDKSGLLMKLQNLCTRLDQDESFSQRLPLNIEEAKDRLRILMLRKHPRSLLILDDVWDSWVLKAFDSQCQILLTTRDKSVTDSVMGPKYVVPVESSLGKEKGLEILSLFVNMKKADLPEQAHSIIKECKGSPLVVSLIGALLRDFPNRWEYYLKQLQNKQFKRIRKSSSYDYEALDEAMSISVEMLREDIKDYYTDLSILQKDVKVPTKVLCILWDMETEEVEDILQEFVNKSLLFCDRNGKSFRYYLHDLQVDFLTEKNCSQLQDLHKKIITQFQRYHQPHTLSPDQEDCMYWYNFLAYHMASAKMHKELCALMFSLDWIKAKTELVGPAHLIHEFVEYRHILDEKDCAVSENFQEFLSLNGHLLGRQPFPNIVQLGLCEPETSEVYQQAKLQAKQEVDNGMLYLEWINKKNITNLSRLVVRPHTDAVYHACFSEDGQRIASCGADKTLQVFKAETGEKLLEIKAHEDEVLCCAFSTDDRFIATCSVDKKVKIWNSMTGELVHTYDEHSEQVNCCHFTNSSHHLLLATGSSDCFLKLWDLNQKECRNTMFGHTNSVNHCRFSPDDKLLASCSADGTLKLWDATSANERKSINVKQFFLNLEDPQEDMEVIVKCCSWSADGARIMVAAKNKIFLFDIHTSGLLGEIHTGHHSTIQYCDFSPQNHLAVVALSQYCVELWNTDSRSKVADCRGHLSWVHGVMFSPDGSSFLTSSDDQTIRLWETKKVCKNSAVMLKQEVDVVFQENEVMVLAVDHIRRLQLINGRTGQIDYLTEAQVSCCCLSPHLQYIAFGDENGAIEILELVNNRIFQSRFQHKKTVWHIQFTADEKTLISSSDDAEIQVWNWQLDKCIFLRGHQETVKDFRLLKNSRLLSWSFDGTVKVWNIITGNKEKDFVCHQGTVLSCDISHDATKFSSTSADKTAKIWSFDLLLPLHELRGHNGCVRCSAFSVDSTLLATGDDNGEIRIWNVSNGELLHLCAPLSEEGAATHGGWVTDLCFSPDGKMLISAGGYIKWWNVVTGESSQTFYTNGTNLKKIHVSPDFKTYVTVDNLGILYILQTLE

[16] = system: HEK293; test: NOD1 signaling inhibitors, primary screen, cell-based, luminescence, uHTS (AID 1578); type: functional; details: Homo sapiens
[17] = system: HEK293; test: cells; type: functional, cell-based; details: Homo sapiens
[18] = system: HEK293; test: cells; type: functional, cell-based; details: Homo sapiens; remark: listed apart in the source
[19] = Luminescence-based counterscreen assay for KLF5 inhibitors: dose response cell-based high throughput screening assay to identify cytotoxic compounds using the IEC-6 intestinal epithelial cell line. [Related pubchem assays: 1700 (Primary screen.), 1834 (Confirmation screen.), 1858 (Summary AID.), 1905 (Counterscreen.)]; type: functional
[20] = target: Nucleotide-binding oligomerization domain-containing protein 2 (Homo sapiens, UniProt Q9HC29); test: NOD2 signaling inhibitors, cell-based, luminescence, uHTS, HEK293 (AID 1566); type: functional
[21] = system: HEK293; test: NOD2 signaling inhibitors in MDP-stimulated cells, cell-based, uHTS, luminescence (AID 2001); type: functional; details: Homo sapiens
[22] = system: HEK293; test: cells; type: functional, cell-based; details: Homo sapiens; remark: listed apart in the source
[23] = target: Tumor necrosis factor (Homo sapiens, UniProt P01375); test: TNFa-triggered NF-kB activation inhibitors, SAR follow-up, cell-based, revised (AID 2337); type: functional
[24] = target: T2, Nucleotide-binding oligomerization domain-containing protein 1 (Homo sapiens, UniProt Q9Y239); test: NOD1 signaling inhibitors, SAR follow-up, revised (AID 2333); type: functional
T2 sequence (Q9Y239 whole entry): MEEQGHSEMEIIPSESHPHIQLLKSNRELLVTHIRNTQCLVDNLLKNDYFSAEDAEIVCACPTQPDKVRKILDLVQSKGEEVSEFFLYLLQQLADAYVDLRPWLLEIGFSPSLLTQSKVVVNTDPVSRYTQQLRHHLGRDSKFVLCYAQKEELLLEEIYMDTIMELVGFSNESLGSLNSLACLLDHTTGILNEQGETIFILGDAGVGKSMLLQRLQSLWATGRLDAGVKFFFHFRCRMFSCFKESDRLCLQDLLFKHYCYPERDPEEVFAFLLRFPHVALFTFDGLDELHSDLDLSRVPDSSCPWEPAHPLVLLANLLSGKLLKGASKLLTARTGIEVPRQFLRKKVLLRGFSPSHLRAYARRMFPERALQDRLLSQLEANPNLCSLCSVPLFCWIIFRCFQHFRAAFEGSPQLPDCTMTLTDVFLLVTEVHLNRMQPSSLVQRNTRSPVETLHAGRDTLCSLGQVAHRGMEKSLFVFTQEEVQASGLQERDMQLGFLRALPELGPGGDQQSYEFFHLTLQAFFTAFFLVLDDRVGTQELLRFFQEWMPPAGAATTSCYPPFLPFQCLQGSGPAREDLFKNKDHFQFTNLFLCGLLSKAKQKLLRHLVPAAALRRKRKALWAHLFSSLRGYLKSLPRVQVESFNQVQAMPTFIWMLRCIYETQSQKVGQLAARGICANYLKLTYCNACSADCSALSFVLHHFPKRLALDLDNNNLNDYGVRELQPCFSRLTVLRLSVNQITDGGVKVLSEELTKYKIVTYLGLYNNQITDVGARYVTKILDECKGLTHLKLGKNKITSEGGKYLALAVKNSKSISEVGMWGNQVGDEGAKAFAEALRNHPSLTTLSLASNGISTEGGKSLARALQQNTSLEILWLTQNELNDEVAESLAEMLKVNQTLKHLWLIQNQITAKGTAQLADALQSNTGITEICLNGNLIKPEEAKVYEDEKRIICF

[25] = cytotoxicity in HEK-293T cells, dose response, cytotoxicity control for TCR NF-kB inhibitor project, luminescence, T-cell screen hits (AID 489026); type: functional, cell-based;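 further: cells exposed to compound about 14 hours before the viability readout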
[26] = system: H4; test: inhibitors of control reporter signal in H4 cells – cell-based, plate reader, dry powder samples, counter-screen for prion reporter project, dose response (AID 540255); type: functional; details: Homo sapiens
[27] = system: H4; test: Inhibitors of Prion Protein 5' UTR mRNA Measured in Cell-Based System Using Plate Reader - 2078-01_Inhibitor_Dose_DryPowder_Activity. [Related pubchem assays (depositor defined):AID488894]; type: functional; details: Homo sapiens
[28] = system: HEK293; test: cells; details: Homo sapiens
[29] = viability loss in Mcl1-dependent HMC-1-8 cells, dose response, selectivity assay for A1 inhibitor project, cell-based, luminescence, dry powder (AID 504415); type: functional; details: Homo sapiens

Chain of Beta-adrenergic receptor kinase 1 (P25098 whole entry): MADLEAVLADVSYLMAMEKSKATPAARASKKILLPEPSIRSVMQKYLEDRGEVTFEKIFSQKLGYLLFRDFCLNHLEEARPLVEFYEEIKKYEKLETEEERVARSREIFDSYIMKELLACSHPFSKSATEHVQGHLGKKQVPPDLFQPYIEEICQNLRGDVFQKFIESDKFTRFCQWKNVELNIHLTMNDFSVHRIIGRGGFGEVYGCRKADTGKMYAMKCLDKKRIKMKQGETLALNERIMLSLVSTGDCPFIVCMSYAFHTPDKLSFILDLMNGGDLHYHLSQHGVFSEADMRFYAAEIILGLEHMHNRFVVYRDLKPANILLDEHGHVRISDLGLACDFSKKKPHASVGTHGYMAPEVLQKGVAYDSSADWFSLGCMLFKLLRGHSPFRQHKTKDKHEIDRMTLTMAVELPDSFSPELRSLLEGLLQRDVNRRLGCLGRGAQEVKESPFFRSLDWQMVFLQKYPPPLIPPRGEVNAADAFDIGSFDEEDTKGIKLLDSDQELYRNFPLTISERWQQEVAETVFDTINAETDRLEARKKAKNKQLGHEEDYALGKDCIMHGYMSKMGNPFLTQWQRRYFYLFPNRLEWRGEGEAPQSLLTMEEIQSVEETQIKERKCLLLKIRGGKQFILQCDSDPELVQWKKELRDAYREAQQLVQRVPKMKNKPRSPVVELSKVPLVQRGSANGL
Chain of Induced myeloid leukemia cell differentiation protein Mcl-1 (Q07820 whole entry): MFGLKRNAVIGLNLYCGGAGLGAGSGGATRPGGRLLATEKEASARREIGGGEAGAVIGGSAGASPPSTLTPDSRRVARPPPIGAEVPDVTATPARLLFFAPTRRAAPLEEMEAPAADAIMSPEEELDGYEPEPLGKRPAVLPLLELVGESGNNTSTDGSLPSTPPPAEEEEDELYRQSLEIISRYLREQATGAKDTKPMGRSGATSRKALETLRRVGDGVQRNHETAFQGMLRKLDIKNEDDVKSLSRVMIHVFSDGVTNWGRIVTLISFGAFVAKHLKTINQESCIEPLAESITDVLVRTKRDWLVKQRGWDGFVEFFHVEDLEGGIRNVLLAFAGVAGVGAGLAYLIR
Chain of Tumor necrosis factor (P01375 whole entry, the tested form may be a part): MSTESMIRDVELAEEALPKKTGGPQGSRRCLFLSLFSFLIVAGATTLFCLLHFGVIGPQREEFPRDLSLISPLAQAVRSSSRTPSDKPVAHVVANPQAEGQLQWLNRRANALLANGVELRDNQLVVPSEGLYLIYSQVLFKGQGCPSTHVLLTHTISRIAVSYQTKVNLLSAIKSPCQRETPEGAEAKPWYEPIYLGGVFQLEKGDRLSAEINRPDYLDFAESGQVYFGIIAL
Chain of Latent membrane protein 1 (P03230 whole entry): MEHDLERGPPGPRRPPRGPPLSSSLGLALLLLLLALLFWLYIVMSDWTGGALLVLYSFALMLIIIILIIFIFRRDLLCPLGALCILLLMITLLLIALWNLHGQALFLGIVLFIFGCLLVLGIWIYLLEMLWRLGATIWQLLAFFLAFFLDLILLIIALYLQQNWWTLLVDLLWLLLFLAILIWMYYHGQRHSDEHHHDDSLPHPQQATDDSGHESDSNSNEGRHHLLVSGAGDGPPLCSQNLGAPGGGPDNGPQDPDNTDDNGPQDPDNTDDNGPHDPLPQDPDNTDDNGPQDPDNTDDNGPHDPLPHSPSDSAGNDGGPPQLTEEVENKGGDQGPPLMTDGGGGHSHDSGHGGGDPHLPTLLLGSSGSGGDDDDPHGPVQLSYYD
Chain of Polyadenylate-binding protein 1 (P11940 whole entry): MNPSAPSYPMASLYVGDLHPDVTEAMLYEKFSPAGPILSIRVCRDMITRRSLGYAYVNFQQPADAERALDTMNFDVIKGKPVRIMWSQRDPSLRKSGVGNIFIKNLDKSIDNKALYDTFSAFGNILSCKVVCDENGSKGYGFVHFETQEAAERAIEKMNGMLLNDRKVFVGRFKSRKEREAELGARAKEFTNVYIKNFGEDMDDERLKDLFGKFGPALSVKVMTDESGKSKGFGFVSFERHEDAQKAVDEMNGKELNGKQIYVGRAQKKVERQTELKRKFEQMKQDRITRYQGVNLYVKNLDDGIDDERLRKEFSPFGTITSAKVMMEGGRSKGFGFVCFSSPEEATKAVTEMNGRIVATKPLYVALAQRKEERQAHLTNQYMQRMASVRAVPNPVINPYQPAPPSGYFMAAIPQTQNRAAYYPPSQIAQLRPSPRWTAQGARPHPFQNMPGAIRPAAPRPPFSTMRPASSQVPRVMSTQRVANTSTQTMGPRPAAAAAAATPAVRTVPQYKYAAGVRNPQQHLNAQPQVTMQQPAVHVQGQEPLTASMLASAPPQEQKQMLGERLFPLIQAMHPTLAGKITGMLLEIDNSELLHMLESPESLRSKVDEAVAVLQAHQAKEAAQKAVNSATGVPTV
Chain of Nucleotide-binding oligomerization domain-containing protein 2 (Q9HC29 whole entry, the tested form may be a part): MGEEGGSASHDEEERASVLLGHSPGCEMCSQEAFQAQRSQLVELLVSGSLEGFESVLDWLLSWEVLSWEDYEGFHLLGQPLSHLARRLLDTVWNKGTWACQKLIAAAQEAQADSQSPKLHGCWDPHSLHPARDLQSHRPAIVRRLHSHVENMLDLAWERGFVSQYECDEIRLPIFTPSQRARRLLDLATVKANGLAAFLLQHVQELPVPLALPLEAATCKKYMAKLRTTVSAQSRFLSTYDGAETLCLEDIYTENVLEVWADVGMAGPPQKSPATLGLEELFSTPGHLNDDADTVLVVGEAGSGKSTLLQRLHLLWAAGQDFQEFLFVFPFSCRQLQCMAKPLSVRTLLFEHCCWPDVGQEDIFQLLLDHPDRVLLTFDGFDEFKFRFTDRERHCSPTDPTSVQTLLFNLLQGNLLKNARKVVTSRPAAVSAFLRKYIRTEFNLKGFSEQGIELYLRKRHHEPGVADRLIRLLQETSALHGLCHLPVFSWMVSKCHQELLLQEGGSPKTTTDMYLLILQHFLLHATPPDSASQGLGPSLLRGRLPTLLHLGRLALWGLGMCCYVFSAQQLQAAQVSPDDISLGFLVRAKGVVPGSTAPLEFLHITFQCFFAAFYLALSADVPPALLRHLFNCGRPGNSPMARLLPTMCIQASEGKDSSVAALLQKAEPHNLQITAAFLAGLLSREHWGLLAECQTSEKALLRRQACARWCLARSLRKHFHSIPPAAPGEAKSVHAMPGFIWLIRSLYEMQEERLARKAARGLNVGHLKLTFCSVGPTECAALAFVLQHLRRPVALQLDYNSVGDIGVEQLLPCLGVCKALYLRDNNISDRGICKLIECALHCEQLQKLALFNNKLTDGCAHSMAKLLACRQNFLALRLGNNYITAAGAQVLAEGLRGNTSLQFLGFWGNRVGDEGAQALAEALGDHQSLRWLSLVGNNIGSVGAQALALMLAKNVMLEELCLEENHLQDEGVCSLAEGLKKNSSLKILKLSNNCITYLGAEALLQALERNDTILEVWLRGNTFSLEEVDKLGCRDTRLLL
Chain of Cysteine protease ATG4B (Q9Y4P1 whole entry): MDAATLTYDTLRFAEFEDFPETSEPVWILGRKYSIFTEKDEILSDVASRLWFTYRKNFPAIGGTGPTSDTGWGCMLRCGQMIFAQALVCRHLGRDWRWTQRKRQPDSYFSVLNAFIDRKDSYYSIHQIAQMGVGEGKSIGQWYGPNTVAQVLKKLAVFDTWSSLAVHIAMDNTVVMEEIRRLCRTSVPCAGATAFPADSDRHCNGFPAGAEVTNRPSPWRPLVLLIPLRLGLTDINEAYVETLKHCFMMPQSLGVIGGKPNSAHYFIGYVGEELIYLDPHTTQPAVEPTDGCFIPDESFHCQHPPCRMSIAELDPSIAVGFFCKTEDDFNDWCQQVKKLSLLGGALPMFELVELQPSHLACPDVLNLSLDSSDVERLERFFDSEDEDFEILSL
Chain of Phospholipase A2 (P04054 whole entry): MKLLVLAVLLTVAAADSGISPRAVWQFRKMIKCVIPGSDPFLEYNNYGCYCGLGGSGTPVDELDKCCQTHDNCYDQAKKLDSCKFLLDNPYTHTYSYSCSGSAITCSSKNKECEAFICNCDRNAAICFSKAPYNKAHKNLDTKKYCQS

## COc1ccc(C(NC(C)=O)c2ccc3cccnc3c2O)cc1 (centres undefined)
[1]
  IC50: 16.5 µM (active)
[2]
  IC50: 4.23 µM (active)
[3]
  IC50: 6.35 µM (active)

## CC(C)c1ccc(NC2CCCN(C(=O)c3cc(C(C)C)n[nH]3)C2)cc1 (centres undefined)
[4]
  IC50: 16.8 µM (active)
[5]
  IC50: 12.2 µM (active)

## CCOc1ccc(C(C)=O)cc1COc1cccnc1[N+](=O)[O-]
[6]
  EC50: 23.1 µM (active)
[7]
  EC50: 32.2 µM (active)
[8]
  EC50: > 150 µM (inconclusive)
[9]
  EC50: 21.9 µM (active)
[10]
  AC50: 80.9 µM (active)

## C=C(C)C(=O)Nc1cccc(C2=NOC3(C2)C[C@@H](C(N)=O)N(C(=O)c2ccc(Cl)cc2)C3)c1 (some centres undefined)
[11]
  IC50: 0.7 µM (active)
[12]
  IC50: 1.54 µM (active)
[13]
  IC50: 9.01 µM (active)
[14]
  EC50: 0.73 µM (active)
[15]
  EC50: 2.35 µM (active)

## CC(C)(C)c1ccc(C(=O)O/N=C(\N)c2ccccn2)cc1
[16]
  EC50: 2.73 µM (active)
[17]
  IC50: < 0.312 µM (active)
[18]
  IC50: > 20 µM (inactive)
[19]
  IC50: 23.1 µM (not active)
[20]
  EC50: 0.04 µM (active)
[21]
  IC50: 3.04 µM (active)
[22]
  IC50: > 20 µM (inactive)
[23]
  IC50: 0.952 µM (active)
[24]
  IC50: 2 µM (active)
[25]
  IC50: > 80 µM (inactive)
[26]
  AC50: 0.034 µM (active)
[27]
  AC50: 0.032 µM (active)
[28]
  IC50: > 20 µM (inactive)

## O=c1oc2ccccc2c(Sc2ccccc2)c1[N+](=O)[O-]
[29]
  AC50: 56.1 µM (active)
